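Test compounds were applied to cells in 96-well plates for 48 hours at 5 doses. GI50: concentration for 50% inhibition of growth.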 Activity calls are given as the source filed them. Rule as the data show it: active = GI50 up to about 1.1 µM and inactive = higher.
Columns and labels:
Assay in all cases: inhibition of tumour cell growth, NCI panel, 48 h
[1] = tested on: COLO 205
[2] = tested on: HCT-15
[3] = tested on: HOP-92
[4] = tested on: HT-29
[5] = tested on: IGROV-1
[6] = tested on: MCF7
[7] = tested on: MDA-MB-435
[8] = tested on: MOLT-4
[9] = tested on: NCI-H23
[10] = tested on: NCI-H522
[11] = tested on: OVCAR-3
[12] = tested on: PC-3
[13] = tested on: RXF 393
[14] = tested on: SK-MEL-5
[15] = tested on: SR
[16] = tested on: T47D
[17] = tested on: U-251
[18] = tested on: UO-31
[19] = tested on: CCRF-CEM

| SMILES | GI50 [1] | GI50 [2] | GI50 [3] | GI50 [4] | GI50 [5] | GI50 [6] | GI50 [7] | GI50 [8] | GI50 [9] | GI50 [10] | GI50 [11] | GI50 [12] | GI50 [13] | GI50 [14] | GI50 [15] | GI50 [16] | GI50 [17] | GI50 [18] | GI50 [19] |
| --- | --- | --- | --- | --- | --- | --- | --- | --- | --- | --- | --- | --- | --- | --- | --- | --- | --- | --- | --- |
| Cn1c(=O)c2nc(CCCc3ccc([N+](=O)[O-])cc3)[nH]c2n(C)c1=O | > 100 µM (inactive) | > 100 µM | > 100 µM (inactive) | > 100 µM (inactive) | > 100 µM (inactive) | > 100 µM (inactive) | > 100 µM (inactive) | 56.6 µM (inactive) | > 100 µM (inactive) | > 100 µM (inactive) | > 100 µM (inactive) | > 100 µM (inactive) | > 100 µM (inactive) | 59.3 µM (inactive) | > 100 µM (inactive) | > 100 µM (inactive) | > 100 µM (inactive) | > 100 µM (inactive) |  |
| c1ccc(C(OCCN2CC3CCC(C2)N3)c2ccccc2)cc1 | 19 µM (inactive) | 47.6 µM | 18.3 µM (inactive) | 31.6 µM (inactive) | 94.6 µM (inactive) | 48.6 µM (inactive) | 35.9 µM (inactive) | 74.8 µM (inactive) | > 100 µM (inactive) | 35.2 µM (inactive) | 45 µM (inactive) | > 100 µM (inactive) | 43.8 µM (inactive) | 18.5 µM (inactive) | 31.6 µM (inactive) | 29.9 µM (inactive) | > 100 µM (inactive) | 64 µM (inactive) | > 100 µM (inactive) |
| COC(=O)C1=C(O)C(C(=O)OC)[C@]2(O)[C@H](C(=O)OC)[C@H]1C[C@@H](c1ccc(F)cc1)[C@H]2C(=O)OC (some centres not stated) | 14.7 µM (inactive) | 12.3 µM | 27.3 µM (inactive) | 16.6 µM (inactive) | 18.8 µM (inactive) | 5.35 µM (inactive) | 5.43 µM (inactive) | 15.2 µM (inactive) | 14 µM (inactive) |  | 11.1 µM (inactive) | 12.2 µM (inactive) | 11.2 µM (inactive) | 12.3 µM (inactive) | 10.9 µM (inactive) | 22.6 µM (inactive) | 15.4 µM (inactive) | 14.1 µM (inactive) | 6.85 µM (inactive) |
| O=C1c2cc(Cl)ccc2N=C(NC2CCCC2)C2CSCN12 (configuration not stated) | > 100 µM (inactive) | > 100 µM |  | 28.9 µM (inactive) | > 100 µM (inactive) | > 100 µM (inactive) | > 100 µM (inactive) | 33.5 µM (inactive) |  | 63.8 µM (inactive) | 60 µM (inactive) | 55.8 µM (inactive) | 92.9 µM (inactive) | 46.1 µM (inactive) | 41.5 µM (inactive) | 42 µM (inactive) | > 100 µM (inactive) | 46.3 µM (inactive) | 45.2 µM (inactive) |
| CC1=C(C#N)C(C#N)(C#N)C(NN(C)C)C1 (configuration not stated) | 3.83 µM (inactive) | 7.38 µM | 15.1 µM (inactive) | 15.4 µM (inactive) | 17.8 µM (inactive) | 10.6 µM (inactive) | 23.7 µM (inactive) | 18.5 µM (inactive) | 17.1 µM (inactive) | 4.07 µM (inactive) |  | 20.4 µM (inactive) | 13 µM (inactive) | 4.49 µM (inactive) | 25.4 µM (inactive) | 6.15 µM (inactive) | 33.9 µM (inactive) | 13.5 µM (inactive) | 3.59 µM (inactive) |
| CSc1ncnc2c1ncn2C1CC(Oc2ccc(C)cc2)C(COc2ccc(C)cc2)O1 (configuration not stated) | > 100 µM (inactive) | > 100 µM | > 100 µM (inactive) | > 100 µM (inactive) | > 100 µM (inactive) | > 100 µM (inactive) | > 100 µM (inactive) | 6.1 µM (inactive) | 49.4 µM (inactive) | > 100 µM (inactive) | > 100 µM (inactive) | > 100 µM (inactive) |  | 52.2 µM (inactive) | 76.6 µM (inactive) | 16.6 µM (inactive) | > 100 µM (inactive) |  | > 100 µM (inactive) |
| COc1ccc(P2(=S)Oc3ccc(C(c4ccccc4)(c4ccccc4)c4ccccc4)cc3O2)cc1 (configuration not stated) | 20.2 µM (inactive) | 19.3 µM | 18.1 µM (inactive) | 18.8 µM (inactive) | 17.5 µM (inactive) | 16.8 µM (inactive) | 16.4 µM (inactive) | 19.6 µM (inactive) | 16.9 µM (inactive) | 16.7 µM (inactive) | 16.9 µM (inactive) | 13.9 µM (inactive) |  | 21.6 µM (inactive) | 22.3 µM (inactive) | 13.7 µM (inactive) | 18 µM (inactive) | 17 µM (inactive) | 24.9 µM (inactive) |
| CC(=O)OCCCCN1C(=O)CSc2ccccc21 |  | > 100 µM | > 100 µM (inactive) |  | > 100 µM (inactive) | > 100 µM (inactive) | > 100 µM (inactive) | > 100 µM (inactive) |  | > 100 µM (inactive) | > 100 µM (inactive) | > 100 µM (inactive) | > 100 µM (inactive) | 66.5 µM (inactive) | > 100 µM (inactive) | > 100 µM (inactive) | > 100 µM (inactive) | 76.7 µM (inactive) | > 100 µM (inactive) |
| COCC12CCC(OC)C34C5CC6(O)C(OC)C=C(C5C6OC(=O)c5ccccc5)C(C(OC)C13)C4N(C)C2 (configuration not stated) | > 100 µM (inactive) | > 100 µM | > 100 µM (inactive) | > 100 µM (inactive) | > 100 µM (inactive) | > 100 µM (inactive) | > 100 µM (inactive) |  | > 100 µM (inactive) | > 100 µM (inactive) | > 100 µM (inactive) | > 100 µM (inactive) | > 100 µM (inactive) | > 100 µM (inactive) | > 100 µM (inactive) | > 100 µM (inactive) | > 100 µM (inactive) | > 100 µM (inactive) | > 100 µM (inactive) |
| Cc1cc2nc(N3C(=O)/C(=C/c4ccc(Cl)cc4)N=C3c3ccccc3)sc2cc1C | 16.1 µM (inactive) | 29.1 µM | 8.55 µM (inactive) | 23.9 µM (inactive) | 14.6 µM (inactive) | 23.4 µM (inactive) | 8.28 µM (inactive) | 53.8 µM (inactive) |  |  | 15.7 µM (inactive) | 26.5 µM (inactive) | 14.6 µM (inactive) | 16.1 µM (inactive) | 46.5 µM (inactive) | 27.5 µM (inactive) | 29.9 µM (inactive) | 26.8 µM (inactive) | 18.1 µM (inactive) |
| COP(=O)(OC)C(NC=O)P(=O)(OC)OC | > 100 µM (inactive) | > 100 µM | > 100 µM (inactive) | > 100 µM (inactive) | > 100 µM (inactive) | > 100 µM (inactive) | > 100 µM (inactive) | > 100 µM (inactive) | > 100 µM (inactive) |  | > 100 µM (inactive) | > 100 µM (inactive) | > 100 µM (inactive) | > 100 µM (inactive) | > 100 µM (inactive) | > 100 µM (inactive) | > 100 µM (inactive) | > 100 µM (inactive) | > 100 µM (inactive) |
| O=C(c1ccccc1)C1N=NCC1c1ccc([N+](=O)[O-])cc1 (configuration not stated) | 39.4 µM (inactive) | 45.8 µM | 23.1 µM (inactive) | 36.6 µM (inactive) |  | 22.4 µM (inactive) | 49.1 µM (inactive) | 22.4 µM (inactive) | 36.1 µM (inactive) |  | 17.1 µM (inactive) | 54.8 µM (inactive) |  | 26.1 µM (inactive) | 27.9 µM (inactive) | 3.91 µM (inactive) | 48.5 µM (inactive) | 30.1 µM (inactive) | 0.935 µM (active) |
| O=C(c1ccccc1)c1ccc(N2C(=O)/C(=C/c3cccc([N+](=O)[O-])c3)N=C2c2ccccc2)c(N2C(=O)/C(=C/c3cccc([N+](=O)[O-])c3)N=C2c2ccccc2)c1 | 2.77 µM (inactive) | 16.5 µM | 82.2 µM (inactive) | 41.9 µM (inactive) | 32.4 µM (inactive) | 26.7 µM (inactive) | 4.88 µM (inactive) | 20.5 µM (inactive) |  |  | 30 µM (inactive) | 27.3 µM (inactive) |  | 2.34 µM (inactive) | 23.4 µM (inactive) | 24 µM (inactive) | 78.7 µM (inactive) | 66.7 µM (inactive) |  |
| CC1CCc2sc3nc4n(c(=O)c3c2C1)CC(C)S4 (configuration not stated) | 18 µM (inactive) | 25.6 µM | 26.1 µM (inactive) | 15.8 µM (inactive) | 34.2 µM (inactive) | 24 µM (inactive) | 34.4 µM (inactive) |  | 25.3 µM (inactive) | 30.9 µM (inactive) | 7.6 µM (inactive) | 22.5 µM (inactive) | 15.4 µM (inactive) | 18.9 µM (inactive) | 26.2 µM (inactive) | 22.4 µM (inactive) | 25.6 µM (inactive) | 2.77 µM (inactive) |  |
| COc1cccc(/N=N/C(=N/NC(=O)c2cc(Cl)ccc2O)c2ccc(N(CCC#N)CCC#N)cc2C)c1 | 6.21 µM (inactive) | 33.3 µM |  | 5.85 µM (inactive) | 23.3 µM (inactive) | 7.8 µM (inactive) | 64.4 µM (inactive) | 19.1 µM (inactive) | 35 µM (inactive) | 9.1 µM (inactive) | 2.06 µM (inactive) | 23.2 µM (inactive) | 38.1 µM (inactive) | 29.9 µM (inactive) | 21.2 µM (inactive) | 7.35 µM (inactive) | 38.3 µM (inactive) | 38.8 µM (inactive) | 15.3 µM (inactive) |
| O=C1/C(=C\c2c(-c3ccccc3)[nH]n(-c3ccccc3)c2=O)C(c2ccccc2)=NN1c1ccccc1 | > 100 µM (inactive) | > 100 µM | 81.3 µM (inactive) | > 100 µM (inactive) | > 100 µM (inactive) | > 100 µM (inactive) | > 100 µM (inactive) | > 100 µM (inactive) | > 100 µM (inactive) |  | > 100 µM (inactive) | > 100 µM (inactive) | > 100 µM (inactive) |  | 20 µM (inactive) | > 100 µM (inactive) | > 100 µM (inactive) | > 100 µM (inactive) | 79.4 µM (inactive) |
